This note sets out measurements from patent US9073876B2, “Flap modulators” (JANSSEN PHARMACEUTICA NV, priority 2013, dated 2015).

Structures can show the parent of a compound that is named as a salt.

The assay addresses human FLAP (Homo sapiens (Human), UniProt P20292). The assay is described as follows: FLAP binding assay (HTRF). The note with it: human FLAP-containing membranes, HTRF format; average of two assay plates, duplicates; read-out: FLAP Binding wild type HTRF Ki. On the procedure:
The ability of the compounds of the present invention to treat a FLAP-mediated disease and/or disorder, or associated symptoms or complications thereof, was determined using the following procedures. Binding assay data represent the average value obtained from two different assay plates, with samples run in duplicate on each plate. Human whole blood assay data represent a single replicate on an assay plate using whole blood from at least one healthy donor.
Data are expressed as a HTRF ratio.

human FLAP, sequence (P20292 whole entry): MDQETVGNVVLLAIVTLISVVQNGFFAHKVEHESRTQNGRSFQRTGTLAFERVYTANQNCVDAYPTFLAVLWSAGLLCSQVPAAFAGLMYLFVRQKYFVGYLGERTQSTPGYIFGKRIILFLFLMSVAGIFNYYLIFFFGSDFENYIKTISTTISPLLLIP

As to `CN(C)CCNc1nccc(Oc2c(C3CCC3)ccc(-c3cnc(N)cn3)c2F)n1` [Example 156, N′-{4-[3-(5-Aminopyrazin-2-yl)-6-cyclobutyl-2-fluorophenoxy]pyrimidin-2-yl}-N,N-dimethylethane-1,2-diamine hydrochloride], the Ki turned out to be 2.24 µM.

For `N#Cc1nc(N)cnc1-c1ccc(C2CCC2)c(O)c1F` [Example 173, 6-amino-3-(4-cyclobutyl-2-fluoro-3-hydroxyphenyl)pyrazine-2-carbonitrile], the Ki turned out to be 0.682 µM.

For the compound `COc1c(C2CCC2)ccc(-c2cnc3[nH]cnc3n2)c1F` [Example 182, 5-(4-cyclobutyl-2-fluoro-3-methoxyphenyl)-1H-imidazo[4,5-b]pyrazine], the inhibitory constant (Ki) turned out to be 1.94 µM.

For `COc1c(Br)ccc(-c2cnc(N)cn2)c1F` [Example 210, 5-(4-bromo-2-fluoro-3-methoxyphenyl)-pyrazin-2-amine], the Ki is 2.5 µM.

With `COc1c(C2CCCC2)ccc(-c2cnc(N)cn2)c1F` [Example 211, 5-(4-Cyclopentyl-2-fluoro-3-methoxyphenyl)pyrazin-2-amine], the inhibitory constant (Ki) came out at 0.527 µM.

For the compound `CC(C)(C)c1ccc(-c2cnc(N)cn2)cc1OCc1ccccc1` [Example 215, 5-[3-(Benzyloxy)-4-tert-butylphenyl]pyrazin-2-amine], the Ki came to 0.62 µM.

`Nc1cnc(-c2ccc(Cl)c(OCc3ccccc3)c2F)cn1` [Example 216, 5-[3-(Benzyloxy)-4-chloro-2-fluorophenyl]pyrazin-2-amine]: the inhibition constant (Ki) was determined as 0.866 µM.

On to `Nc1cnc(-c2ccc(C3CCC3)c(OCc3ccccc3)c2)cn1` [Example 217, 5-[3-(Benzyloxy)-4-cyclobutylphenyl]pyrazin-2-amine], for which the Ki came to 1.25 µM.

Take `COc1c(C2CCC2)ccc(-c2ccc(N)nn2)c1F` [Example 219, 6-(4-cyclobutyl-2-fluoro-3-methoxyphenyl)pyridazin-3-amine]: the Ki is greater than 10 µM.

For the compound `Oc1c(C2CCC2)ccc(-c2cc3cc[nH]c3nn2)c1F` [Example 221, 6-cyclobutyl-2-fluoro-3-(7H-pyrrolo[2,3-c]pyridazin-3-yl)phenol], the inhibitory constant (Ki) worked out at 0.593 µM.

As for `Nc1ccc(-c2ccc(C3CCC3)c(O)c2F)nn1` [Example 223, 3-(6-aminopyridazin-3-yl)-6-cyclobutyl-2-fluorophenol], the Ki was greater than 10 µM.

In the case of `Nc1ccc(-c2ccc(C3CCC3)c(Oc3ncccn3)c2F)nn1` [Example 231, 6-(4-cyclobutyl-2-fluoro-3-(pyrimidin-2-yloxy)phenyl)pyridazin-3-amine], the Ki worked out at 2.14 µM.

As for `COc1cc(Oc2c(C3CCC3)ccc(-c3ccc(N)nn3)c2F)ncn1` [Example 232, 6-(4-cyclobutyl-2-fluoro-3-((6-methoxypyrimidin-4-yl)oxy)phenyl)pyridazin-3-amine], the Ki was 1.59 µM.

`Nc1ccc(-c2ccc(C3CCC3)c(Oc3cc(O)ncn3)c2F)nn1` [Example 233, 6-(3-(6-aminopyridazin-3-yl)-6-cyclobutyl-2-fluorophenoxy)pyrimidin-4-ol]: the Ki was found to be 1.68 µM.

As for `Nc1cnc(-c2ccc(C3CCC3)c(OCC3CCOCC3)c2F)cn1` [Example 264, 5-[4-Cyclobutyl-2-fluoro-3-(tetrahydro-2H-pyran-4-ylmethoxy)phenyl]pyrazin-2-amine], the Ki was greater than 10 µM.

`CS(=O)(=O)c1cc(C#N)ccc1Oc1c(C2CCC2)ccc(-c2cnc(N)cn2)c1F` [Example 265, 4-[3-(5-Aminopyrazin-2-yl)-6-cyclobutyl-2-fluorophenoxy]-3-(methylsulfonyl)benzonitrile]: the Ki is greater than 10 µM.

Turning to `Nc1cnc(-c2ccc(C3CCC3)c(Oc3ccc(C(F)(F)F)cc3C(F)(F)F)c2F)cn1` [Example 266, 5-{3-[2,4-Bis(trifluoromethyl)phenoxy]-4-cyclobutyl-2-fluorophenyl}pyrazin-2-amine], the Ki was greater than 10 µM.

Take `CN(C)CCCOc1c(C2CCC2)ccc(-c2cnc(N)cn2)c1F` [Example 267, 5-{4-Cyclobutyl-3-[3-(dimethylamino)propoxy]-2-fluorophenyl}pyrazin-2-amine]: the Ki was greater than 10 µM.

Turning to `CN(C)CCOc1c(C2CCC2)ccc(-c2cnc(N)cn2)c1F` [Example 268, 5-{4-Cyclobutyl-3-[2-(dimethylamino)ethoxy]-2-fluorophenyl}pyrazin-2-amine], the inhibition constant Ki was greater than 10 µM.

Turning to `Nc1ccnc(Oc2c(C3CCC3)ccc(-c3cc4cc[nH]c4nn3)c2F)n1` [Example 270, 2-[6-Cyclobutyl-2-fluoro-3-(7H-pyrrolo[2,3-c]pyridazin-3-yl)phenoxy]pyrimidin-4-amine], the Ki worked out at 0.799 µM.

On to `N#Cc1nc(N)ncc1Oc1c(C2CCC2)ccc(-c2cnc(N)cn2)c1F` [Example 273, 2-Amino-5-[3-(5-aminopyrazin-2-yl)-6-cyclobutyl-2-fluorophenoxy]pyrimidine-4-carbonitrile], for which the Ki is greater than 10 µM.

`Cn1ccnc1COc1c(C2CCC2)ccc(-c2cnc(N)cn2)c1F` [Example 280, 5-{4-Cyclobutyl-2-fluoro-3-[(1-methyl-1H-imidazol-2-yl)methoxy]phenyl}pyrazin-2-amine trifluoroacetic acid salt]: the Ki was greater than 10 µM.

For the compound `Nc1cnc(-c2ccc(C3CCC3)c(OCc3nc4ccccc4s3)c2F)cn1` [Example 283, 5-[3-(1,3-Benzothiazol-2-ylmethoxy)-4-cyclobutyl-2-fluorophenyl]pyrazin-2-amine trifluoroacetic acid salt], the Ki was 0.0976 µM.

As for `Cn1cnc(COc2c(C3CCC3)ccc(-c3cnc(N)cn3)c2F)c1` [Example 284, 5-{4-Cyclobutyl-2-fluoro-3-[(1-methyl-1H-imidazol-4-yl)methoxy]phenyl}pyrazin-2-amine trifluoroacetic acid salt], the inhibitory constant (Ki) is greater than 10 µM.

Turning to `Cn1cncc1COc1c(C2CCC2)ccc(-c2cnc(N)cn2)c1F` [Example 285, 5-{4-Cyclobutyl-2-fluoro-3-[(1-methyl-1H-imidazol-5-yl)methoxy]phenyl}pyrazin-2-amine trifluoroacetic acid salt], the Ki was greater than 10 µM.

As for `Nc1cnc(-c2ccc(C3CCC3)c(OCc3cccnn3)c2F)cn1` [Example 288, 5-[4-Cyclobutyl-2-fluoro-3-(pyridazin-3-ylmethoxy)phenyl]pyrazin-2-amine trifluoroacetic acid salt], the Ki came to 0.365 µM.

Take `NCCOc1c(C2CCC2)ccc(-c2cnc(N)cn2)c1F` [Example 294, 5-[3-(2-aminoethoxy)-4-cyclobutyl-2-fluorophenyl]pyrazin-2-amine]: the Ki is 0.691 µM.

In the case of `Nc1cnc(-c2ccc(C3CCC3)c(OCC3CCNCC3)c2F)cn1` [Example 298, 5-[4-Cyclobutyl-2-fluoro-3-(piperidin-4-ylmethoxy)phenyl]pyrazin-2-amine hydrogen chloride salt], the Ki was greater than 10 µM.

For `Nc1cnc(-c2ccc(C3CCC3)c(OCC3CNC3)c2F)cn1` [Example 301, 5-[3-(Azetidin-3-ylmethoxy)-4-cyclobutyl-2-fluorophenyl]pyrazin-2-amine], the Ki was greater than 10 µM.

In the case of `Cc1ccc(-c2cnc(N)cn2)c(F)c1Oc1ncccn1` [Example 314, 5-[2-Fluoro-4-methyl-3-(pyrimidin-2-yloxy)phenyl]pyrazin-2-amine], the Ki was greater than 10 µM.

Turning to `Cc1ccc(-c2cnc(N)cn2)c(F)c1Oc1nccc(N)n1` [Example 315, 2-[3-(5-Aminopyrazin-2-yl)-2-fluoro-6 methylphenoxy]pyrimidin-4-amine], the Ki turned out to be 1.36 µM.
